In the NIST ThermoML archive (doi:10.1021/je7006549):

Assay: mn = molality of the nth substance listed, in mol/kg
Settings: 101 kPa, Liquid

CC1=CC(=O)c2ccccc2C1=O [2-methyl-1,4-naphthalenedione] + Cc1ccc(C)cc1
Settings | mass density [kg/m3] | viscosity [mPa·s]
303.15 K, m1 = 0.0454 | 854 | 0.5859
303.15 K, m1 = 0.0902 | 856 | 0.5904
303.15 K, m1 = 0.1361 | 858.1 | 0.5958
303.15 K, m1 = 0.1815 | 860.1 | 0.6048
303.15 K, m1 = 0.2267 | 862.1 | 0.6092
303.15 K, m1 = 0.2724 | 864.1 | 0.6161
308.15 K, m1 = 0.0454 | 849.7 | 0.5528
308.15 K, m1 = 0.0902 | 851.7 | 0.5581
308.15 K, m1 = 0.1361 | 853.8 | 0.5631
308.15 K, m1 = 0.1815 | 855.8 | 0.5716
308.15 K, m1 = 0.2267 | 857.8 | 0.5748
308.15 K, m1 = 0.2724 | 859.8 | 0.582
313.15 K, m1 = 0.0454 | 845.2 | 0.5222
313.15 K, m1 = 0.0902 | 847.2 | 0.5274
313.15 K, m1 = 0.1361 | 849.3 | 0.5349
313.15 K, m1 = 0.1815 | 851.3 | 0.5396
313.15 K, m1 = 0.2267 | 853.3 | 0.543
313.15 K, m1 = 0.2724 | 855.3 | 0.5477
318.15 K, m1 = 0.0454 | 840.7 | 0.4999
318.15 K, m1 = 0.0902 | 842.7 | 0.5047
318.15 K, m1 = 0.1361 | 844.8 | 0.5097
318.15 K, m1 = 0.1815 | 846.8 | 0.5152
318.15 K, m1 = 0.2267 | 848.8 | 0.5183
318.15 K, m1 = 0.2724 | 850.8 | 0.5242
323.15 K, m1 = 0.0454 | 836.5 | 0.4686
323.15 K, m1 = 0.0902 | 838.5 | 0.4737
323.15 K, m1 = 0.1361 | 840.6 | 0.477
323.15 K, m1 = 0.1815 | 842.6 | 0.4824
323.15 K, m1 = 0.2267 | 844.6 | 0.4864
323.15 K, m1 = 0.2724 | 846.6 | 0.4907
328.15 K, m1 = 0.0454 | 831.9 | 0.4467
328.15 K, m1 = 0.0902 | 833.9 | 0.4509
328.15 K, m1 = 0.1361 | 836 | 0.456
328.15 K, m1 = 0.1815 | 838 | 0.4615
328.15 K, m1 = 0.2267 | 840 | 0.4633
328.15 K, m1 = 0.2724 | 842 | 0.4698
333.15 K, m1 = 0.0454 | 827.6 | 0.4225
333.15 K, m1 = 0.0902 | 829.6 | 0.4258
333.15 K, m1 = 0.1361 | 831.7 | 0.4309
333.15 K, m1 = 0.1815 | 833.7 | 0.4364
333.15 K, m1 = 0.2267 | 835.7 | 0.4384
333.15 K, m1 = 0.2724 | 837.7 | 0.4429

CC1=CC(=O)c2ccccc2C1=O [2-methyl-1,4-naphthalenedione] + Cc1cccc(C)c1
Settings | mass density [kg/m3] | viscosity [mPa·s]
303.15 K, m1 = 0.0452 | 857.6 | 0.5673
303.15 K, m1 = 0.0902 | 859.6 | 0.5771
303.15 K, m1 = 0.1352 | 861.6 | 0.5802
303.15 K, m1 = 0.1802 | 863.6 | 0.5844
303.15 K, m1 = 0.2254 | 865.6 | 0.5902
303.15 K, m1 = 0.272 | 867.7 | 0.6031
308.15 K, m1 = 0.0452 | 853.1 | 0.5351
308.15 K, m1 = 0.0902 | 855.1 | 0.5422
308.15 K, m1 = 0.1352 | 857.1 | 0.5467
308.15 K, m1 = 0.1802 | 859.1 | 0.5523
308.15 K, m1 = 0.2254 | 861.1 | 0.5566
308.15 K, m1 = 0.272 | 863.2 | 0.5654
313.15 K, m1 = 0.0452 | 848.9 | 0.5098
313.15 K, m1 = 0.0902 | 850.9 | 0.5144
313.15 K, m1 = 0.1352 | 852.9 | 0.5188
313.15 K, m1 = 0.1802 | 854.9 | 0.5237
313.15 K, m1 = 0.2254 | 856.9 | 0.5284
313.15 K, m1 = 0.272 | 859 | 0.5352
318.15 K, m1 = 0.0452 | 844.4 | 0.4864
318.15 K, m1 = 0.0902 | 846.4 | 0.4931
318.15 K, m1 = 0.1352 | 848.4 | 0.4977
318.15 K, m1 = 0.1802 | 850.4 | 0.5013
318.15 K, m1 = 0.2254 | 852.4 | 0.505
318.15 K, m1 = 0.272 | 854.5 | 0.5117
323.15 K, m1 = 0.0452 | 840.3 | 0.4593
323.15 K, m1 = 0.0902 | 842.3 | 0.4642
323.15 K, m1 = 0.1352 | 844.3 | 0.4669
323.15 K, m1 = 0.1802 | 846.3 | 0.4711
323.15 K, m1 = 0.2254 | 848.3 | 0.4753
323.15 K, m1 = 0.272 | 850.4 | 0.4817
328.15 K, m1 = 0.0452 | 835.7 | 0.4381
328.15 K, m1 = 0.0902 | 837.7 | 0.4432
328.15 K, m1 = 0.1352 | 839.7 | 0.4456
328.15 K, m1 = 0.1802 | 841.7 | 0.4497
328.15 K, m1 = 0.2254 | 843.7 | 0.4539
328.15 K, m1 = 0.272 | 845.8 | 0.463
333.15 K, m1 = 0.0452 | 831.6 | 0.4148
333.15 K, m1 = 0.0902 | 833.6 | 0.4198
333.15 K, m1 = 0.1352 | 835.6 | 0.4242
333.15 K, m1 = 0.1802 | 837.6 | 0.4269
333.15 K, m1 = 0.2254 | 839.6 | 0.429
333.15 K, m1 = 0.272 | 841.7 | 0.4342
